From patent US20040009899A1, “Treating dominant disorders” (priority 2002, published 2004)

Columns and labels:
Assay type in all cases: in vivo, mouse
R6/2 mice [1] = assay: Body weight of treated R6/2 mice
Description: (§1) Experiments were conducted to determine whether PNA-mediated inhibition of mutant huntingtin expression increased survival and/or reversed features of pathophysiology. R6/2 and non-transgenic mice were divided into two groups of three to five mice each, and treated with either HDs or ACSF for approximately ten weeks, beginning at five to six weeks of age. Treated animals received a dose of 0.15 mg/kg of the HDs PNA oligomer, administered by continuous infusion through an Alzet pump. All ACSF-treated transgenic mice died by three months of age.
In other experiments, R6/2 mice were divided into five groups (designated groups 1-5) containing eight to ten animals each. Groups 1-4 received either saline (group 1) or a specific amount of HDs (groups 2-4). Group 5 included untreated R6/2 mice. A sixth group included untreated non-transgenic B6CBA control mice. At 8 weeks of age, each mouse was weighed to establish a weight stability baseline. Baselines for clasping behavior, motility, and motor skill were established at 9 weeks of age using the methods described in Example 1.
(§2) At 9 weeks of age, the mice in each group received saline (group 1) or HDs at 2.0 mg/kg, 5.0 mg/kg, or 20.0 mg/kg (groups 2, 3, and 4, respectively) by i.p. injection every 48 hours. […] Weight stability, clasping behavior, motility, and motor skill were assessed weekly during the treatment period. […]

GAPDH = assay: Western immunoblot of GAPDH (non-targeted gene) in PNA-treated R6/1 mice; conditions: any animal tested
Description: Following the treatment period, mice were anesthetized with ether and sacrificed by cervical dislocation. Whole brains and livers were removed and placed in 0.9% saline. Striatum tissue was dissected from whole brains, and liver tissue was finely minced. The tissues were placed in separate 2 mL microfuge tubes on dry ice and then suspended in 20 volumes of RIPA buffer (50 mM Tris pH 8, 150 mM NaCl, 1 mM EDTA, 1 mM EGTA, 0.5% sodium deoxycholate, 0.1% SDS, 1% TritonX-100, 2 μg/mL leupeptin, 2 μg/mL aprotinin, 1 μg/mL pepstatin, 1 mM phenylmethylsulfonylfluoride) per gram of tissue. Suspended tissues were homogenized by sonication, and the homogenates were clarified by centrifugation at 12,000×g for 20 minutes at 4° C. Following centrifugation, the supernatants were removed and protein concentrations were quantified by Bradford assays using a BSA standard.
Immunoblotting: Supernatants from the tissue homogenates were mixed with 1/6 volume of 6×SDS sample buffer (350 mM Tris pH 6.8, 10% SDS, 30% glycerol, 15% 2-mercaptoethanol, 0.012% bromophenol blue). Equal amounts of protein were directly loaded onto 10% acrylamide/0.05% bisacrylamide gels without heat denaturation. […] Protein bands were detected on film by chemiluminescence. […]

R6/2 mice [2] = assay: Clasping test; conditions: any group (2.0, 5.0 or 20.0 mg/kg i.p. every 48 hours)
Description: Clasping test: Dystonic movement was assessed using a procedure adapted from Yamamoto and colleagues (Yamamoto et al., Cell, 101:57-66, 2000). Each animal was suspended by the tail for 15 seconds, and its behavior was videotaped for subsequent analysis. The number and duration of abnormal movements were recorded upon viewing the videotaped behavior. An abnormal movement was defined as any dystonic movement of hindlimbs and/or forelimbs and/or trunk during which the limbs were pulled in toward the body in a manner distinct from that observed in wild-type mice. The duration of dystonic movements was recorded as a percent of total time. Mice were assessed for clasping score and clasping duration. The test period was divided into 2-second increments.
In other experiments, R6/2 mice were divided into five groups (designated groups 1-5) containing eight to ten animals each. Groups 1-4 received either saline (group 1) or a specific amount of HDs (groups 2-4). Group 5 included untreated R6/2 mice. A sixth group included untreated non-transgenic B6CBA control mice. […]
as §2

R6/2 mice [3] = assay: Brain weight / brain atrophy of treated R6/2 mice
Description: as §1
At 9 weeks of age, the mice in each group received saline (group 1) or HDs at 2.0 mg/kg, 5.0 mg/kg, or 20.0 mg/kg (groups 2, 3, and 4, respectively) by i.p. injection every 48 hours. The injections continued through 13 weeks of age (i.e., treatment for […]). Weight stability, clasping behavior, motility, and motor skill were assessed weekly during the treatment period. At the time of death or after the treatment period, the brain of each mouse was removed using standard methods. The brains were divided into hemispheres, and one hemisphere of each brain was saved for protein and mRNA analysis. The remaining hemispheres were fixed directly in 10% formalin for 5-7 days. After fixing, the brain hemispheres were weighed individually and processed for sectioning and pathophysiology.

HDs: sense PNA oligomer, 14 residues, 5′-GGACTGCCGTGCCG-3′ (SEQ ID NO:3), specific for the expanded human HD allele (all peptide nucleic acid (PNA))
weight stability over the treatment period (R6/2 mice [1]; R6/2 mice, 5.0 mg/kg i.p. every 48 hours, compared to 2.0 mg/kg or 20.0 mg/kg): more stable weight | body weight over time (R6/2 mice [1]; surviving R6/2 mice, 0.15 mg/kg continuous infusion by Alzet pump): continued to gain weight over time | inhibition of non-targeted genes such as GAPDH (GAPDH): No measurable inhibition | clasping behavior over the treatment period (R6/2 mice [2]): No significant alterations in clasping behavior | general brain atrophy typical of untreated R6/2 mice (R6/2 mice [3]; R6/2 mice, 0.15 mg/kg continuous infusion by Alzet pump): did not display the general brain atrophy | recovery in brain hemisphere weight as compared to untreated non-transgenic mice (R6/2 mice [3]; R6/2 mice, 20.0 mg/kg i.p. every 48 hours): greatest degree of recovery | brain hemisphere weight (R6/2 mice [3]; R6/2 mice, all doses (2.0, 5.0, 20.0 mg/kg i.p. every 48 hours), dose dependent effect): greater than the weights of brain hemispheres from untreated R6/2 mice | brain weight (R6/2 mice [3]; two non-surviving treated R6/2 mice, 0.15 mg/kg continuous infusion by Alzet pump): increased brain weight
